Data from US7994127B2, “Treatment of rett syndrome” (Massachusetts Institute of Technology, priority 2007, dated 2011).
Entries after “also recorded” stand apart in the source; their conditions may differ.

What was measured:
[1] = system: wild type young mice; settings: Tropea et al., 2006; cited from earlier work
[2] = system: MeCP2−/y mice; experiment: Heart rate measurements (real time cardiac pulse rate, tail clip sensor); type: in vivo, mouse; settings: 8 week old MeCP2−/y mice, treated from P15 (6 weeks), non-anesthetized
[3] = Overall brain weight; type: in vivo, mouse; settings: as a result of knockout and treatment (Discussion)
[4] = system: layer 5 pyramidal neurons of MeCP2−/y mice; experiment: Intracellular whole-cell recordings of spontaneous EPSCs in acute cortical slices; type: ex vivo, mouse
Protocol: (1-3)IGF-1 treatment: For the survival measurements, the nocturnal activity analysis and the immunoblot analysis, (1-3) IGF-1 (Bachem Biosciences # H22468) was administered daily via intra-peritoneal injections (0.01 mg/g body weight, vehicle=saline, 0.01% BSA). The treatment was started at P15 and maintained throughout the course of the experiments. For intracellular physiology experiments, the mice were injected daily (0.01 mg/g body weight, vehicle=saline, 0.01% BSA) for 2 weeks, from P15 to P28-P32 when they were used for acute slice preparation. For optical imaging experiments, mice were injected with (1-3) IGF-1 (0.02 mg/g body weight, vehicle=saline, 0.01% BSA) daily from the day of the lid suture to the day of imaging. Slice physiology preparation: Coronal sections (300 μm thick) at or near sensorimotor cortex were cut in <4° C. ACSF using a Vibratome. Slices were incubated at 37° C. for 20 minutes after slicing, and at room temperature for the remainder of the experiment. Slices were transferred to a Warner chamber and recordings were taken from visually identified pyramidal neurons located in layer 5. Artificial cerebral spinal fluid (ACSF) contained 126 mM NaCl, 25 mM NaHCO3, 1 mM NaHPO4, 3 mM KCl, 2 mM MgSO4, 2 mM CaCl2, and 14 mM dextrose, was adjusted to 315-320 mOsm and 7.4 pH, and was bubbled with 95% O2/5% CO2. The intracellular pipette solution contained 100 mM potassium gluconate, 20 mM KCl, 10 mM HEPES, 4 mM MgATP, 0.3 mM NaGTP, and 10 mM Na-phosphocreatine. […] Cells were visualized with an Achroplan 40× water-immersion lens with infrared-DIC optics (Zeiss) and detected with an infrared camera (Hamamatsu) projecting to a video monitor. […] Then in current clamp ˜10 pulses (500 ms, 40-140 pA at 10 pA increments), were applied to quantify evoked firing rates and cellular excitability. […] Analysis was performed using a custom software package written in Matlab, with all events detected according to automated thresholds and blindly verified for each event individually by the experimenter. […]

**Q.** With `NCC(=O)N1CCC[C@H]1C(=O)N[C@@H](CCC(=O)O)C(=O)O` [(1-3)IGF-1, glycyl-L-prolyl-L-glutamic acid] as the molecule, how does the OD plasticity [1] read?
**A.** abolish OD plasticity

**Q.** And the “heart rate distribution / occurrence of irregular, lower heart rate (bradycardia, FIG. 4A)” value [2]?
**A.** significantly reduced; also recorded: partial rescue of the KO phenotype

**Q.** What about the overall brain weight [3] of the same molecule?
**A.** small changes were seen

**Q.** And the “mean EPSC amplitude per neuron, across all cells (FIG. 1C)” value ([4]; KO-T compared to KO, treated two weeks, mice 28-32 days old)?
**A.** modestly but significantly increased

**Q.** And the “spontaneous EPSC amplitude (FIG. 1B)” value ([4]; MeCP2−/y mice, 0.01 mg/g body weight IP daily for 2 weeks, P15 to P28-P32, vs vehicle-treated MeCP2−/y)?
**A.** significantly larger in amplitude

**Q.** What about the “distributions of intervals between EPSC events (EPSC frequency, FIG. 1D)” value ([4]; between WT, and KO and KO-T groups) of the same molecule?
**A.** subtly but significantly modified
